Test results reported in ChEMBL document CHEMBL1126278, “New neplanocin analogues. 1. Synthesis of 6'-modified neplanocin A derivatives as broad-spectrum antiviral agents” (J Med Chem, 1992).
≈ marks a conversion by molar mass, not a printed value.

Columns and labels:
[1] = system: ESM; assay: Inhibitory effect on replication of DNA virus Cell morphology on ESM cell line; format: functional, cell-based
[2] = system: ESM; assay: Inhibitory effect on replication of DNA virus HSV-1 (KOS) in ESM cell line; format: functional, cell-based
[3] = system: ESM; assay: Inhibitory effect on replication of DNA virus HSV-2 (G) in ESM cell line; format: functional, cell-based
[4] = system: ESM; assay: Inhibitory effect on replication of DNA virus TK-HSV-1 (B2006) on ESM cell line.; format: functional, cell-based
[5] = system: ESM; assay: Inhibitory effect on replication of DNA virus TK-HSV-1 (VMW 1837) on ESM cell line.; format: functional, cell-based
[6] = system: ESM; assay: Inhibitory effect on replication of DNA virus VV on ESM cell line.; format: functional, cell-based
[7] = system: ESM; assay: Inhibitory effect on replication of RNA virus VSV in ESM cell line.; format: functional, cell-based
[8] = system: ESM; assay: Inhibitory effect on replication of RNA virus cell morphology in ESM cell line.; format: functional, cell-based
[9] = system: HEL; assay: Inhibitory effect on replication of DNA virus CMV (AD-169) on HEL cell line.; format: functional, cell-based; conditions: Homo sapiens
[10] = system: HEL; assay: Inhibitory effect on replication of DNA virus CMV (Davis) on HEL cell line.; format: functional, cell-based; conditions: Homo sapiens
[11] = system: HEL; assay: Inhibitory effect on replication of DNA virus Cell growth on HEL cell line.; format: functional, cell-based; conditions: Homo sapiens
[12] = system: HEL; assay: Inhibitory effect on replication of DNA virus TK-VZV (07-1) on HEL cell line.; format: functional, cell-based; conditions: Homo sapiens
[13] = system: HEL; assay: Inhibitory effect on replication of DNA virus TK-VZV (YSR) on HEL cell line.; format: functional, cell-based; conditions: Homo sapiens
[14] = system: HEL; assay: Inhibitory effect on replication of DNA virus VZV (Oka) on HEL cell line.; format: functional, cell-based; conditions: Homo sapiens
[15] = system: HEL; assay: Inhibitory effect on replication of DNA virus VZV (YS) on HEL cell line.; format: functional, cell-based; conditions: Homo sapiens
[16] = system: HeLa; assay: Inhibitory effect on replication of RNA virus coxsB-4 in HeLa cell line.; format: functional, cell-based; conditions: Homo sapiens
[17] = system: HeLa; assay: Inhibitory effect on replication of RNA virus cell morphology in HeLa cell line.; format: functional, cell-based; conditions: Homo sapiens
[18] = system: MDCK; assay: Inhibitory effect on replication of RNA virus cell morphology in MDCK cell line.; format: functional, cell-based; conditions: Canis lupus familiaris
[19] = system: MT4; assay: Inhibitory effect on replication of RNA virus HIV-1 in MT-4 cell line.; format: functional, cell-based; conditions: Homo sapiens
[20] = system: MT4; assay: Inhibitory effect on replication of RNA virus HIV-2 in MT-4 cell line.; format: functional, cell-based; conditions: Homo sapiens
[21] = system: MT4; assay: Inhibitory effect on replication of RNA virus cell growth in MT-4 cell line.; format: functional, cell-based; conditions: Homo sapiens
[22] = system: PRK; assay: Inhibitory effect on replication of DNA virus Cell morphology on PRK cell line; format: functional, cell-based; conditions: Oryctolagus cuniculus
[23] = system: PRK; assay: Inhibitory effect on replication of DNA virus VV on PRK cell line.; format: functional, cell-based; conditions: Oryctolagus cuniculus
[24] = Inhibitory effect on replication of DNA virus HSV-2 (G) in PRK cell line.; format: functional, cell-based, herpes simplex virus; conditions: Human alphaherpesvirus 1, PRK
[25] = Inhibitory effect on replication of DNA virus HSV-1 (KOS) in PRK cell line.; format: functional, cell-based; conditions: Oryctolagus cuniculus
[26] = system: PRK; assay: Inhibitory effect on replication of RNA virus VSV in PRK cell line.; format: functional, cell-based; conditions: Oryctolagus cuniculus
[27] = system: PRK; assay: Inhibitory effect on replication of RNA virus cell morphology in PRK cell line.; format: functional, cell-based; conditions: Oryctolagus cuniculus
[28] = system: Vero; assay: Inhibitory effect on replication of RNA virus coxsB-4 in Vero cell line; format: functional, cell-based; conditions: Chlorocebus sabaeus
[29] = system: Vero; assay: Inhibitory effect on replication of RNA virus reo-1 in Vero cell line.; format: functional, cell-based; conditions: Chlorocebus sabaeus
[30] = system: Vero; assay: Inhibitory effect on replication of RNA virus JV in Vero cell line.; format: functional, cell-based; conditions: Chlorocebus sabaeus
[31] = system: Vero; assay: Inhibitory effect on replication of RNA virus SFV in Vero cell line; format: functional, cell-based; conditions: Chlorocebus sabaeus
[32] = system: Vero; assay: Inhibitory effect on replication of RNA virus SV in Vero cell line.; format: functional, cell-based; conditions: Chlorocebus sabaeus
[33] = system: Vero; assay: Inhibitory effect on replication of RNA virus TV in Vero cell line.; format: functional, cell-based; conditions: Chlorocebus sabaeus
[34] = system: Vero; assay: Inhibitory effect on replication of RNA virus RNA synthesis in Vero cell line.; format: functional, cell-based; conditions: Chlorocebus sabaeus
[35] = system: Vero; assay: Inhibitory effect on replication of RNA virus cell morphology in Vero cell line.; format: functional, cell-based; conditions: Chlorocebus sabaeus
[36] = system: Vero; assay: Inhibitory effect on replication of RNA virus protein synthesis in Vero cell line.; format: functional, cell-based; conditions: Chlorocebus sabaeus
[37] = system: Vero; assay: Inhibitory effect on replication of RNA virus PV-3 in Vero cell line.; format: functional, cell-based; conditions: Chlorocebus sabaeus
[38] = system: HeLa; assay: cells; conditions: Homo sapiens
[39] = system: MDCK; assay: cells; conditions: Canis lupus familiaris
[40] = system: MDCK; assay: cells; conditions: Canis lupus familiaris; remark: listed apart in the source

In the case of C[C@@H](O)C1=C[C@@H](n2cnc3c(N)ncnc32)[C@H](O)[C@@H]1O, the IC50 [1] is reported as over 400 µg/mL, the IC50 [2] is reported as over 400 µg/mL and the IC50 [3] is reported as over 400 µg/mL. The IC50 [4] was 70 µg/mL (≈ 252 µM), the IC50 [5] was 70 µg/mL (≈ 252 µM) and the IC50 [6] was 0.04 µg/mL (≈ 0.144 µM). For the same molecule, the IC50 [7] was 0.07 µg/mL (≈ 0.252 µM), the IC50 [8] was over 400 µg/mL and the IC50 [9] was 0.06 µg/mL (≈ 0.216 µM). It also gave an IC50 [10] of 0.03 µg/mL (≈ 0.108 µM), an IC50 [11] of over 200 µg/mL and an IC50 [12] of 38 µg/mL (≈ 137 µM). For the same molecule, the IC50 [13] was 6 µg/mL (≈ 21.6 µM), the IC50 [14] was 21 µg/mL (≈ 75.7 µM) and the IC50 [15] was 65 µg/mL (≈ 234 µM). For the same molecule, the IC50 [16] was over 400 µg/mL, the IC50 [17] was over 400 µg/mL and the IC50 [18] was over 100 µg/mL. For the same molecule, the IC50 [19] was over 0.03 µg/mL, the IC50 [20] was over 0.03 µg/mL and the IC50 [21] was 0.09 µg/mL (≈ 0.325 µM). It also gave an IC50 [22] of over 400 µg/mL, an IC50 [23] of 0.1 µg/mL (≈ 0.361 µM) and an IC50 [24] of over 200 µg/mL. The IC50 [25] was over 400 µg/mL, the IC50 [26] was 0.1 µg/mL (≈ 0.361 µM) and the IC50 [27] was over 400 µg/mL. For the same molecule, the IC50 [28] was over 200 µg/mL, the IC50 [29] was 0.04 µg/mL (≈ 0.144 µM) and the IC50 [30] was 0.4 µg/mL (≈ 1.44 µM). It also gave an IC50 [31] of over 200 µg/mL, an IC50 [32] of 4 µg/mL (≈ 14.4 µM) and an IC50 [33] of 0.5 µg/mL (≈ 1.8 µM). It also gave an IC50 [34] of 0.1 µg/mL (≈ 0.361 µM), an IC50 [35] of over 400 µg/mL and an IC50 [36] of 56 µg/mL (≈ 202 µM). For the same molecule, the IC50 [37] was 0.1 µg/mL (≈ 0.361 µM), the IC50 [38] was over 400 µg/mL and the IC50 [39] was over 100 µg/mL. It also gave an IC50 [40] of over 100 µg/mL.
